Measurements from article PMC11867202, “Phosphonoalamides Reveal the Biosynthetic Origin of Phosphonoalanine Natural Products and a Convergent Pathway for Their Diversification” (Angewandte Chemie (International ed. in English), 2024).
Where two headings read alike, the source gives them in different places.

What was measured:
PnaA [1] = conditions: read-out: Km (apparent); co-substrate oxaloacetate; PLP
PnaD = tested on: T1, PnaD; test: coupled spectrophotometric assay, NADH oxidation; PnaD with PnaA; type: biochemical, Streptomyces sp. NRRL S-515; conditions: two-enzyme system, 5:1 PnaD to PnaA; co-substrate L-Asp; read-out: Km (apparent)
T1 construct: recombinant, purified from E. coli; assayed coupled to PnaA
From the text: coupled spectrophotometric assay, NADH oxidation; PnaD with PnaA on PnaD | apparent steady state parameters for the conversion of PEP to L-PnAla in reactions with PnaD

PnaA [2] = tested on: T2, PnaA; test: coupled spectrophotometric assay, NADH oxidation via PnPy reductase VlpB; type: biochemical, Streptomyces sp. NRRL S-515; conditions: reverse reaction; co-substrate oxaloacetate; PLP; varied substrate not explicitly named in main text; read-out: Km (apparent)
T2 construct: recombinant, purified from E. coli; PLP-dependent
From the text: coupled spectrophotometric assay, NADH oxidation via PnPy reductase VlpB on PnaA | the reverse reaction (transamination of PnAla and OAA to PnPy and Asp)

PnaA [3] = tested on: T2, PnaA; test: coupled spectrophotometric assay, NADH oxidation via malate dehydrogenase; type: biochemical, Streptomyces sp. NRRL S-515; conditions: co-substrate L-Asp; PLP; read-out: Km (apparent)

Question: Which Km (PnaA [1]) does the source give for `N[C@@H](CCC(=O)O)C(=O)O` [Glu] here?
Answer: 7500 ± 700 µM

Question: With `C=C(OP(=O)(O)O)C(=O)O` [PEP] as the compound, how does the Km (PnaD) read?
Answer: 546 ± 60 µM

Question: Which Km (PnaA [2]) does the source give for `N[C@@H](CP(=O)(O)O)C(=O)O` [PnAla] here?
Answer: 327 ± 40 µM

Question: `O=C(O)C(=O)CP(=O)(O)O` [PnPy] was tested. Which Km (PnaA [3]) did it give?
Answer: 4.8 ± 0.4 µM

Question: For `O=C(O)CCC(=O)C(=O)O` [αKG], which Km (PnaA [3]) is on record?
Answer: 899 ± 97 µM
